Columns and labels:
Type in all cases: cell-based, human
1BR3 cells = assay: Micronuclei per 100 cells 24 h after contacting, 1BR3
Procedure: (§1) In one embodiment, on receipt, the tissue sample (typically the biopsy) is established in the form of an amplifiable cell line without a viral or chemical transformation agent according to an ancillary procedure well known to culture laboratories, as underlined by the publication of Elkind et al. “The radiobiology of cultured mammalian cell”, Gordon and Breach (1967). Once the number of cells is sufficient (typically after 1 to 3 weeks), the first experiments are carried out using the process according to the invention. A cell sample is prepared: The cells are inoculated on glass coverslips in Petri dishes. A portion of these coverslips are contaminated with metals or pesticides or any other DNA-breaking chemical or biochemical agent at different concentrations. A further portion is not contaminated; it represents the spontaneous state. During contamination, the cells remain in the culture incubator at 37° C.
(§2) the cells are fixed in 3% paraformaldehyde and 2% sucrose for 15 minutes at ambient temperature and permeabilized in 20 mM HEPES buffer solution (4-(2-hydroxyethyl)-1-piperazine ethane sulfonic acid) at pH 7.4, 50 mM NaCl, 3 mM MgCl2, 300 mM sucrose, 0.5% Triton X-100 (a non-ionic surfactant having the formula t-Oct-C6H4-(OCH2CH2)×OH where x=9-10, CAS No. 9002-93-1, supplied for example by Sigma Aldrich) for 3 minutes. The glass coverslips are then washed in phosphate buffer saline (known as the acronym PBS) before immunological staining. The incubation took place for 40 min at 37° C. in PBS supplemented with 2% bovine serum albumin (known as the acronym BSA or fraction V, supplied for example by Sigma Aldrich) and was followed by a wash with PBS. Anti-pH2AX primary antibodies are used at a concentration of 1:800. The incubations with anti-mouse FITC or anti-rabbit TRITC secondary antibodies (1:100, supplied by Sigma Aldrich) were performed at 37° C. in 2% BSA for 20 minutes. Glass coverslips were treated with Vectashield™ containing DAPI (4,6-Diamidino-2-phenylindole) to label the nucleus. Staining with DAPI also makes it possible, indirectly, to determine the number of cells in phase G1 (nuclei with homogenous DAPI staining), in phase S (nuclei with numerous pH2AX foci), in phase G2 (nuclei with heterogeneous DAPI staining) and metaphases (visible chromosomes).
(§3) Counterstaining with DAPI (a DNA marker known to those skilled in the art) makes it possible to locate the nucleus to situate the cytoplasmic or nuclear location to quantify the micronuclei, which are complementary cell markers to the data on the foci.
(§4) The tables hereinafter summarize the results of numerous experiments which were carried out as described in the “Detailed description” section above.
(§5) In tables 3 and 4, “pH2AX” corresponds to the mean number of nuclear foci obtained with the marker pH2AX, 24 hours after contacting the cell sample with the chemical agent at the concentration C (NpH2AX(24 h, C)), and where “Micronuclei” corresponds to the mean number of micronuclei observed per 100 cells 24 hours after contacting the cell sample with the chemical agent at the concentration C(NMN(24 h, C)).

1BR3 (control cells) = assay: pH2AX foci immunofluorescence 24 h after contacting, 1BR3 control fibroblasts; conditions: 1BR3, 24 hours after contacting (Table 3)
Procedure: as §1
(§6) For the contaminated cells, characteristics are acquired corresponding to the state after an incubation time with the DNA-breaking chemical or biochemical agent. Said characteristics are represented by foci corresponding to the marker pH2AX. The cells on glass coverslips are then fixed, lysed and hybridized. The following procedure, known per se (Bodgi et al, “A single formula to describe radiation-induced protein relocalization: towards a mathematical definition of individual radiosensitivity”, J Theor Biol. 21 p 333:135-45.2013):
as §2
(§7) The results are acquired using these coverslips on an immunofluorescence microscope (Olympus model for example). The reading may be direct (typically by counting the foci on at least 50 cells in G0/G1 for each point) or using dedicated image analysis software, or on an automated microscope; preferably the software or automated microscope methods are calibrated with manual determinations.
Commercial 1BR3 and 149 BR control fibroblasts were amplified according to the recommendations of the supplier (SIGMA-ALDRICH) until the number of cells sought was obtained. After obtaining a sufficient number of cells (generally after one to 3 weeks), the first experiments were conducted using the process according to the invention. The cells were inoculated on glass coverslips in Petri dishes.
The acquisition of the results was carried out using these coverslips on an immunofluorescence microscope (Olympus model). The reading was performed directly by counting the foci obtained with the marker pH2AX on at least 50 cells in G0/G1 for each point or using dedicated image analysis software (imageJ). […]

HMEC cells [1] = assay: Micronuclei per 100 cells 24 h after contacting, Table 4 lower part (HMEC); conditions: line cell blank (below Hasp)
Procedure: as §1, §2, §3, §4, §5

HMEC cells [2] = assay: pH2AX foci 24 h after contacting, Table 4 lower part (HMEC endothelial cells); conditions: line cell blank (below Hasp), 24 hours after contacting
Procedure: as §1, §6, §2, §7, §4, §5

[3] = system: Hah (hippocampus astrocyte cells); assay: pH2AX foci 24 h after contacting, Hah hippocampus astrocyte cells
Procedure: as §1, §6, §2, §7, §4
(§8) In tables 3 and 4, “pH2AX” corresponds to the mean number of nuclear foci obtained with the marker pH2AX, 24 hours after contacting the cell sample with the chemical agent at the concentration C (NpH2AX(24 h, C)), and where “Micronuclei” corresponds to the mean number of micronuclei observed per 100 cells 24 hours after contacting the cell sample with the chemical agent at the concentration C(NMN(24 h, C)). […]

[4] = system: Hah (hippocampus astrocyte cells); assay: Micronuclei per 100 cells 24 h after contacting, Hah
Procedure: as §1, §2, §3, §4, §5
(§9) Table 4 presents a detection of number of pH2AX foci and number of micronuclei 24 hours after contacting control nervous system cell lines Ha (astrocyte cells), Hah (hippocampus astrocyte cells) and Hasp (spinal cord astrocyte cells) with a metallic compound (AlCl3, Cu, CuCl2, CuSO4, Pb(NO3)2, CdCl2, Cd-acetate or Cd-acetate-citrate) according to the concentration of said metallic compound used.

Ha (astrocyte cells) [5] = assay: pH2AX foci 24 h after contacting, Ha astrocyte cells; conditions: Ha, 24 hours after contacting
Procedure: as §1, §6, §2, §7, §4, §8

Ha (astrocyte cells) [6] = assay: Micronuclei per 100 cells 24 h after contacting, Ha astrocyte cells
Procedure: as §1, §2, §3, §4, §5, §9

[7] = system: Hasp (spinal cord astrocyte cells); assay: Micronuclei per 100 cells 24 h after contacting, Hasp
Procedure: as §1, §2, §3, §4, §5, §9

[8] = system: Hasp (spinal cord astrocyte cells); assay: pH2AX foci 24 h after contacting, Hasp spinal cord astrocyte cells
Procedure: as §1, §6, §2, §7, §4, §8

For CCNc1nc(Cl)nc(NC(C)C)n1 [Atrazine], the Micronuclei (1BR3 cells; 0.01 μM) was 5 per 100 cells, the Micronuclei (1BR3 cells; 0.1 μM) was 6 per 100 cells and the Micronuclei (1BR3 cells; 1 μM) was 13.5 per 100 cells. For the same compound, the Micronuclei (1BR3 cells; 10 μM) was 15 per 100 cells, the Micronuclei (1BR3 cells; 20 μM) was 40 per 100 cells and the pH2AX (1BR3 (control cells); 0.01 μM) was 1 foci. The pH2AX (1BR3 (control cells); 0.1 μM) was 1.3 foci, the pH2AX (1BR3 (control cells); 0.3 μM) was 1.8 foci and the pH2AX (1BR3 (control cells); 10 μM) was 3.1 foci. For the same compound, the pH2AX (1BR3 (control cells); 30 μM) was 3.5 foci.

Oc1c(Cl)c(Cl)c(Cl)c(Cl)c1Cl [PCP] gave a Micronuclei (1BR3 cells; 0.3 μM) of 2 per 100 cells, a Micronuclei (1BR3 cells; 3 μM) of 4 per 100 cells and a Micronuclei (1BR3 cells; 10 μM) of 10 per 100 cells. The Micronuclei (1BR3 cells; 50 μM) was 10 per 100 cells, the Micronuclei (1BR3 cells; 100 μM) was 20 per 100 cells and the pH2AX (1BR3 (control cells); 0.3 μM) was 1.2 foci. For the same compound, the pH2AX (1BR3 (control cells); 10 μM) was 1.5 foci, the pH2AX (1BR3 (control cells); 30 μM) was 1.9 foci and the pH2AX (1BR3 (control cells); 100 μM) was 4.3 foci.

Work on [Cl][Cu][Cl] [CuCl2] yielded a Micronuclei (HMEC cells [1]; 3 μM) of 4 per 100 cells, a Micronuclei (HMEC cells [1]; 10 μM) of 6.7 per 100 cells and a Micronuclei (HMEC cells [1]; 30 μM) of 5.3 per 100 cells. It also gave a Micronuclei (HMEC cells [1]; 100 μM) of 6.7 per 100 cells, a Micronuclei (HMEC cells [1]; 300 μM) of 7.3 per 100 cells and a Micronuclei (HMEC cells [1]; 1000 μM) of 4 per 100 cells. It also gave a pH2AX (HMEC cells [2]; 3 μM) of 1.6 foci, a pH2AX (HMEC cells [2]; 10 μM) of 1.9 foci and a pH2AX (HMEC cells [2]; 30 μM) of 1.6 foci. It also gave a pH2AX (HMEC cells [2]; 100 μM) of 1.5 foci, a pH2AX (HMEC cells [2]; 300 μM) of 5.3 foci and a pH2AX (HMEC cells [2]; 1000 μM) of 21.4 foci.

With [Cu] [Cu] the pH2AX ([3]; 10 μM) was 1.01 foci, the pH2AX ([3]; 30 μM) was 1.87 foci and the pH2AX ([3]; 100 μM) was 2.62 foci. The pH2AX ([3]; 300 μM) was 5.45 foci, the pH2AX ([3]; 1000 μM) was 6.61 foci and the Micronuclei ([4]; 10 μM) was 6 per 100 cells. For the same compound, the Micronuclei ([4]; 30 μM) was 10.7 per 100 cells, the Micronuclei ([4]; 100 μM) was 20.7 per 100 cells and the Micronuclei ([4]; 300 μM) was 46.7 per 100 cells. For the same compound, the Micronuclei ([4]; 1000 μM) was 73.3 per 100 cells, the pH2AX (Ha (astrocyte cells) [5]; 10 μM) was 0.3 foci and the pH2AX (Ha (astrocyte cells) [5]; 30 μM) was 0.62 foci. For the same compound, the pH2AX (Ha (astrocyte cells) [5]; 100 μM) was 2.55 foci, the pH2AX (Ha (astrocyte cells) [5]; 300 μM) was 0 foci and the pH2AX (Ha (astrocyte cells) [5]; 1000 μM) was 0 foci. The Micronuclei (Ha (astrocyte cells) [6]; 10 μM) was 4 per 100 cells, the Micronuclei (Ha (astrocyte cells) [6]; 30 μM) was 5 per 100 cells and the Micronuclei (Ha (astrocyte cells) [6]; 100 μM) was 13 per 100 cells. The Micronuclei (Ha (astrocyte cells) [6]; 300 μM) was 20 per 100 cells, the Micronuclei (Ha (astrocyte cells) [6]; 1000 μM) was 50 per 100 cells and the Micronuclei ([7]; 10 μM) was 4 per 100 cells. The Micronuclei ([7]; 30 μM) was 7 per 100 cells, the Micronuclei ([7]; 100 μM) was 9 per 100 cells and the Micronuclei ([7]; 300 μM) was 10 per 100 cells. It also gave a Micronuclei ([7]; 1000 μM) of 16 per 100 cells, a pH2AX ([8]; 10 μM) of 0.29 foci and a pH2AX ([8]; 30 μM) of 0.64 foci. The pH2AX ([8]; 100 μM) was 1.13 foci, the pH2AX ([8]; 300 μM) was 1.78 foci and the pH2AX ([8]; 1000 μM) was 2.36 foci.
